{
  "source": "patent US8471027B2",
  "about": "“Adamantyl compounds” (Hoffmann-La Roche Inc., priority 2011, dated 2013)",
  "key": {"JNK1": {"target": "JNK1 (Homo sapiens, UniProt P45983)", "sequence (P45983 whole entry, species assumed, the tested form may be a part)": "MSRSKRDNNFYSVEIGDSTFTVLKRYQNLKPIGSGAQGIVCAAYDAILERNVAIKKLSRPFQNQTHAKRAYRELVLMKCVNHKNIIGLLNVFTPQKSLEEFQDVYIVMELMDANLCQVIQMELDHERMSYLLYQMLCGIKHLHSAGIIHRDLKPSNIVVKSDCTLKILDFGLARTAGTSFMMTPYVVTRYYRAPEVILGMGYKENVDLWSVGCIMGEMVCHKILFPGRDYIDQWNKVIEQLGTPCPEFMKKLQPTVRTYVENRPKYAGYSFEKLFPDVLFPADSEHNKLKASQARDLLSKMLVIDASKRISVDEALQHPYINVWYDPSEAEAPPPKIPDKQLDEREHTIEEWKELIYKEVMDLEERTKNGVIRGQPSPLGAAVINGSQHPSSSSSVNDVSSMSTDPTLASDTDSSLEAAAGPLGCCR", "test": "In vitro JNK1 Assay (TR-FRET, phosphorylation of GST-c-Jun)", "assay_type": "biochemical", "conditions": "0.2 nM JNK1, 26.7 nM GST-c-Jun, 2 μM ATP", "experimental": "Phosphorylation of GST-c-Jun protein (amino acid residues 1-79) was measured as JNK1 activity. […] The reaction buffer contained 50 mM HEPES, pH 7.0, 10 mM MgCl2, 1 mM DTT, 0.1 mM Na3 VO4 and 0.2 mg/mL BSA. After 30 min. incubation at room temperature, the reaction was terminated by adding buffer containing 8 mM EDTA and a polyclonal anti-phospho-c-Jun antibody (Cell Signaling #9261L), followed by an additional incubation of 30 min. at room temperature. […] Time-resolved Fluorescence Resonance Energy Transfer (TR-FRET) signals were measured 1 hr. later on the EnVision reader (Perkin Elmer). Compound potency was assessed at 10 serially diluted concentrations. Percentage of inhibition at each concentration was determined to generate an IC50 value for each compound."}, "[1]": {"test_system": "phospho(Ser63)-c-jun in HK-2 cells", "test": "Cell-based assay for JNK inhibitors: in-cell ELISA of TNFα-stimulated phospho(Ser63)-c-jun in HK-2 cells", "conditions": "Homo sapiens, 10 ng/mL TNFα, 60 min preincubation with compound", "experimental": "Cell-Based Assay for JNK Inhibitors\nThe cell-based assay employed the in-cell ELISA method to determine the ability of compounds to prevent the generation of phospho(Ser63)-c-jun in HK-2 cells (human proximal tubule cells) in response to stimulation with tumor necrosis factor α (TNFα). In brief, for quantification of phospho(Ser63)-c-jun, the cells (in 96-well format) were fixed and permeablized then incubated sequentially with a rabbit anti-phospho-c-jun First Antibody specific for the presence of the phospho-Ser63 epitope and a donkey anti-rabbit IgG Second Antibody linked to horseradish peroxidase (HRP) for colorimetric quantitation of binding. For determination of non-specific binding of the First Antibody, Blank wells were preincubated with a mouse anti-phospho(Ser63)-c-jun Blocking Antibody that prevented specific binding of the First Antibody to the phospho-Ser63 epitope, but which was not recognized by the donkey anti-rabbit IgG Second Antibody. […] Blank wells received no TNFα stimulation or compound. Additional Control wells received TNFα stimulation, but no compound. The signal obtained in this case was considered the value for 0% inhibition (Control value).\nStock cultures of HK-2 cells (ATCC, Manassas, Va.) were grown under a 5% CO2/[…] atmosphere at 37 degrees C. in Keratinocyte-SFM medium (KSFM, Invitrogen, Grand Island, N.Y.) containing 5 μg/L epidermal growth factor and 5 mg/L bovine pituitary extract (both supplied with the medium), additionally supplemented with 10% (v/v) fetal calf serum (FCS; Invitrogen, Grand Island, N.Y.) and 1% (v/v) antibiotic-antimycotic (ABAM: Sigma, St. Louis, Mo.). For assays, cells were seeded in collagen coated 96-well polystyrene plates (BD Biosciences, Franklin Lakes, N.J.) at a density of 40,000 cells/well and cultured for 24 h in the same medium (100 μL/well) followed by a further 16-24 h in 100 μL of similar medium, but without FCS. […] Cells were incubated for a further 30 minutes and then the medium was aspirated and the wells washed with 100 μL/well PBS followed by the addition of 100 μL 3.7% (v/v) Formaldehyde (Fisher Scientific, Fair Lawn, N.J.) in PBS. Plates were then allowed to stand at room temperature for 20 minutes before being washed with 200 μL/well of PBS. (Further steps were performed immediately or the plates were stored at 4 degrees C. and the assay completed the next day.) To each well was added 100 μL 1% (v/v) TritonX-100 (Sigma, St. Louis, Mo.) in PBS followed by 20 minutes standing at room temperature, washing with 200 μL/well PBS, the addition of 100 μL/well of Quenching buffer (1% (v/v) hydrogen peroxide (Sigma, St. Louis, Mo.) and 0.1% (w/v) sodium azide (Fisher Scientific, Fair Lawn, N.J.)) in PBS and a further 20 minutes at room temperature. Plates were then washed twice with 200 μL/well of 0.1% (v/v) Tween-20 (Teknova, Hollister, Calif.) in PBS before addition of 200 μL/well of 2% BSA/0.10% Tween-20 in PBS and a further 1 hour at room temperature. At this time, buffer was removed from Blank wells and replaced with 90 μL/well of mouse anti-phospho-c-jun-Ser63 (BD Bioscience, 558036) diluted 1:4000 in PBS containing 1% BSA/0.1% Tween-20 (Antibody Dilution Buffer). All other wells are replaced with 90 μL/well of rabbit anti-phospho-c-jun-Ser63 (Cell Signaling, 9261) diluted 1:250 in Antibody Dilution Buffer. After a further one hour, rabbit anti-phospho-c-jun-Ser63 is added directly to the solution in the Blank wells resulting in 1:250 dilution of this antibody. Plates were then placed on a slowly rotating platform at 4 degrees C. overnight. Wells were then washed thrice with 200 μL/well PBS/0.1% Tween-20. After addition of the third wash, the plates were placed on a slowly rotating platform for 15 minutes at room temperature. […]"}, "phospho-(Ser63)-c-jun": {"test_system": "phospho-(Ser63)-c-jun", "test": "Rat In Vivo TNFα-Induced Kidney Phospho-c-Jun Assay", "design": "species or system Sprague-Dawley rats", "conditions": "Example D, 2 doses of 75 mg/kg oral (0 and 12 h), TNFα 2.5 ug/kg i.v. at 23 h, killed 1 h later, normalized to Group 2 as 100%, mean (standard deviation)", "experimental": "Male Sprague-Dawley rats were obtained from Charles River and acclimatized for at least one week prior to use at age 6-8 weeks. Rats (n=8 per group) were administered Compound I-1 (Group 3; 75 mg/kg from a Microprecipitated Bulk Powder formulation resuspended in Klucel vehicle at 18.75 mg/mL) or vehicle alone (Groups 1 and 2) via oral gavage. Seven hours later, rats received an intravenous challenge of 2.5 μg/kg recombinant rat TNFα (Sigma) in saline (Groups 2 and 3) or saline alone (Group 1). After a further 1 h, the animals were killed by carbon dioxide inhalation. Kidneys were removed, rapidly frozen in liquid nitrogen and stored at −80 degrees until analysis.\nSample analysis was performed as described for mouse kidneys in Example a.\nMale Sprague-Dawley rats were obtained from Charles River and acclimatized for at least one week prior to use at age 6-8 weeks. Rats (n=8 per group) were administered Compound I-1 (Groups 3 and 4; 75 mg/kg from a Microprecipitated Bulk Powder formulation resuspended in Klucel vehicle at 18.75 mg/mL) or vehicle alone (Groups 1 and 2) via oral gavage. Group 3 received an additional identical dose 12 hours later. Group 4 received an additional identical dose at 8 and 16 hours after the first dose. […]"}},
  "data": [
    {"smiles": "COC(=O)c1c(Cc2ccc(C(=O)N[C@@H]3[C@@H]4C[C@@H]5C[C@H]3C[C@@](O)(C5)C4)cc2)c(=O)c2cccnc2n1-c1ccccc1", "note": "[Compound I-1, rel-3-[4-((1S,2S,3R,5S,7S)-5-Hydroxy-adamantan-2-ylcarbamoyl)-benzyl]-4-oxo-1-phenyl-1,4-dihydro-[1,8]naphthyridine-2-carboxylic acid methyl ester]", "values": [
      {"measurement": "IC50", "setting": "JNK1", "value": 12, "unit": "nM"},
      {"measurement": "EC50", "setting": "[1]", "value": 4.1, "unit": "µM"},
      {"measurement": "Kidney phospho-c-jun", "setting": "phospho-(Ser63)-c-jun", "value": "59.6 (30.0) %"}
    ]}
  ]
}
